In ChEMBL document CHEMBL1201862, “PubChem BioAssay data set” (2004):
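In this assay, cells in 96-well plates receive the compound at five concentrations for 48 hours. Endpoints are linearly interpolated between the surrounding concentrations. At the GI50, growth is halved.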 Active and inactive are the calls of the source. No stated cut-off is given here; in the data, active = GI50 up to about 1.1 µM and inactive = higher.

Legend:
Test in all cases: inhibition of tumour cell growth, NCI panel, 48 h
CAKI-1 = test system: CAKI-1
LOX IMVI = test system: LOX IMVI
HCT-15 = test system: HCT-15
HCT-116 = test system: HCT-116
RPMI-8226 = test system: RPMI-8226
U-251 = test system: U-251
OVCAR-5 = test system: OVCAR-5
MDA-MB-231 = test system: MDA-MB-231
A549 = test system: A549
BT-549 = test system: BT-549
ACHN = test system: ACHN
UACC-257 = test system: UACC-257
PC-3 = test system: PC-3
NCI/ADR-RES = test system: NCI/ADR-RES
SK-MEL-2 = test system: SK-MEL-2
UO-31 = test system: UO-31
Hs-578T = test system: Hs-578T
K562 = test system: K562
HOP-92 = test system: HOP-92
MOLT-4 = test system: MOLT-4

Compound	GI50 (CAKI-1)	GI50 (LOX IMVI)	GI50 (HCT-15)	GI50 (HCT-116)	GI50 (RPMI-8226)	GI50 (U-251)	GI50 (OVCAR-5)	GI50 (MDA-MB-231)	GI50 (A549)	GI50 (BT-549)	GI50 (ACHN)	GI50 (UACC-257)	GI50 (PC-3)	GI50 (NCI/ADR-RES)	GI50 (SK-MEL-2)	GI50 (UO-31)	GI50 (Hs-578T)	GI50 (K562)	GI50 (HOP-92)	GI50 (MOLT-4)
Cc1ccc(N(C)S(=O)(=O)c2ccccc2[N+](=O)[O-])cc1	48.2 µM (inactive)	32.4 µM (inactive)	46.7 µM	39.1 µM (inactive)	33.9 µM (inactive)	49.2 µM (inactive)	65.5 µM (inactive)	41 µM (inactive)	39.6 µM (inactive)	23.3 µM (inactive)	58.9 µM (inactive)	41.7 µM (inactive)	19 µM (inactive)	37.5 µM (inactive)	30.8 µM (inactive)	40.5 µM (inactive)	–	–	–	–
COc1ccc2c(O)c(Oc3ccc(Cl)cc3)c(=O)oc2c1	54.3 µM (inactive)	> 100 µM (inactive)	41.4 µM	> 100 µM (inactive)	> 100 µM (inactive)	53.5 µM (inactive)	> 100 µM (inactive)	> 100 µM (inactive)	> 100 µM (inactive)	36.9 µM (inactive)	93.3 µM (inactive)	> 100 µM (inactive)	> 100 µM (inactive)	–	–	27.5 µM (inactive)	> 100 µM (inactive)	> 100 µM (inactive)	34.5 µM (inactive)	> 100 µM (inactive)
O=C(Nc1ccccc1)O/N=C(/CBr)c1ccccc1	14.8 µM (inactive)	3.15 µM (inactive)	4.04 µM	4.3 µM (inactive)	16.3 µM (inactive)	14.5 µM (inactive)	18.1 µM (inactive)	12.2 µM (inactive)	34 µM (inactive)	–	17.1 µM (inactive)	17.8 µM (inactive)	12.6 µM (inactive)	17.9 µM (inactive)	13.9 µM (inactive)	16.1 µM (inactive)	26.2 µM (inactive)	4.12 µM (inactive)	16.1 µM (inactive)	3.18 µM (inactive)
CCOC(=O)c1ccc(N2C(=S)N(C(=O)c3ccccc3)C(=N/c3ccccc3)/C2=N\c2ccccc2)cc1	27.6 µM (inactive)	–	> 100 µM	–	> 100 µM (inactive)	25.5 µM (inactive)	> 100 µM (inactive)	–	52.8 µM (inactive)	30.5 µM (inactive)	37.8 µM (inactive)	> 100 µM (inactive)	59 µM (inactive)	> 100 µM (inactive)	40.6 µM (inactive)	56.9 µM (inactive)	58.3 µM (inactive)	> 100 µM (inactive)	26.4 µM (inactive)	> 10 µM (inactive)
O=C1C(Cl)=C(Cl)C(=O)N1c1ccc(F)cc1 [FLUOROIMIDE]	13.7 µM (inactive)	16.5 µM (inactive)	16.2 µM	26 µM (inactive)	15.1 µM (inactive)	33.1 µM (inactive)	20.9 µM (inactive)	17.1 µM (inactive)	97.9 µM (inactive)	16.5 µM (inactive)	18.2 µM (inactive)	36.1 µM (inactive)	16.3 µM (inactive)	–	46.1 µM (inactive)	22 µM (inactive)	28.1 µM (inactive)	5.11 µM (inactive)	17.6 µM (inactive)	6.22 µM (inactive)
COc1ccc(O[C@H](COCc2ccccc2)C[C@@H]2COC(C)(C)O2)cc1	> 100 µM (inactive)	> 100 µM (inactive)	> 100 µM	> 100 µM (inactive)	> 100 µM (inactive)	> 100 µM (inactive)	> 100 µM (inactive)	> 100 µM (inactive)	> 100 µM (inactive)	> 100 µM (inactive)	> 100 µM (inactive)	> 100 µM (inactive)	> 100 µM (inactive)	> 100 µM (inactive)	> 100 µM (inactive)	> 100 µM (inactive)	–	> 100 µM (inactive)	–	> 100 µM (inactive)
NC1=Nc2ncccc2C(=O)NN1	–	> 10 µM (inactive)	> 10 µM	> 10 µM (inactive)	> 10 µM (inactive)	> 10 µM (inactive)	> 10 µM (inactive)	> 10 µM (inactive)	> 10 µM (inactive)	> 10 µM (inactive)	> 10 µM (inactive)	> 10 µM (inactive)	> 10 µM (inactive)	–	> 10 µM (inactive)	> 10 µM (inactive)	0.382 µM (active)	> 10 µM (inactive)	> 10 µM (inactive)	> 10 µM (inactive)
CCOC(=O)CCCc1cc(O)c2c(C)c3[nH]c4ccc(Cl)cc4c3c(C)c2n1	24.9 µM (inactive)	38.7 µM (inactive)	31.5 µM	34.8 µM (inactive)	32.6 µM (inactive)	22.9 µM (inactive)	82.6 µM (inactive)	23.9 µM (inactive)	19.6 µM (inactive)	19 µM (inactive)	24.3 µM (inactive)	43.2 µM (inactive)	28.8 µM (inactive)	23.4 µM (inactive)	26.9 µM (inactive)	20.1 µM (inactive)	–	26.1 µM (inactive)	22 µM (inactive)	49.8 µM (inactive)
